This is an account of results in patent US9708314B2, “Heterocyclic amide compound” (NISSAN CHEMICAL INDUSTRIES, LTD., priority 2013, dated 2017).

What all share (format): in vivo
The subject of data set [1] is Echinochloa oryzacola Vasing. Description: Test Example 2: herbicidal activity, application during weed generation in submerged conditions. The conditions noted are these: Eighteenth Table. In short, it runs like this: (§1)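 Scored three weeks post-application on a 0–5 scale (5: ≥90% herbicidal ratio, almost withered; 0: ≤5%). Plants raised from mixed-sown seed in submerged alluvial soil (4 cm water), 25–30 °C greenhouse; water-diluted emulsion applied onto water surface at one- to two-leaf stage, dose in g/ha.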

The next data set relates to Monochoria vaginalis. The data set is described as above. The settings on record: Eighteenth Table. In short, it runs like this:
as §1

The test system of the next data set is Scirpus juncoides. The description is as above. The settings on record: Eighteenth Table. An outline of the steps: as §1
The next data set concerns Cyperus difformis. The experiment in a line: Test Example 3: herbicidal effect by application to foliage (Wagner pot, water depth 0.1-0.5 cm). The settings on record: Nineteenth Table. In short, it runs like this:
(§2)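 Post-emergence foliar application at a stated g/ha rate to plants grown 14 days from seed in alluvial soil, greenhouse 25–30 °C. Visual score after 3 weeks: 0 (≤5% effect) through 5 (≥90%).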

Data set [2] deals with Echinochloa crus-galli var. crus-galli. The data set is described as above. The settings on record: Nineteenth Table. In short, it runs like this:
as §2

In another data set the test system is Leptochloa chinensis. The description is as above. The conditions noted are these: Nineteenth Table. An outline of the steps:
as §2

Data set [3] concerns directly sowed Oryza sativa. Description: Test Example 3: effect on crop by application to foliage (Wagner pot, water depth 0.1-0.5 cm). The settings on record: Nineteenth Table. In short, it runs like this:
as §2

The subject of the next data set is Amaranthus retroflexus. The experiment in a line: Test Example 4: herbicidal effect by application to foliage (diluvial soil, plastic box). The conditions noted are these: application to foliage, application herbicide amount 320 g/ha. An outline of the steps: (§3)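 Seeds sown in sterilized diluvial soil, covered ~1.5 cm, grown 14 days in greenhouse at 25° C. to 30° C. Emulsion formulation diluted in water to set rate (g/ha) and sprayed onto stems and leaves. Effect scored visually 3 weeks later on 0–5 scale (5 = ≥90% herbicidal ratio, 0 = ≤5%).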

In the next data set the test system is Stellaria media. Described as above. The conditions noted are these: application to foliage, application herbicide amount 320 g/ha. An outline of the steps:
as §3

Setting [4] is: application herbicide amount 320 g/ha.
The mark [5] stands for this setting: application herbicide amount 280 g/ha.
[6] abbreviates: application herbicide amount 400 g/ha.

Consider `CCC(C)c1nnc2c(C(=O)Nc3nnc(C)o3)ccc(C(F)(F)F)n12` (stereo not drawn) [1-021], for which the “A (Echinochloa oryzicola Vasing.) herbicidal ratio grade” value in [1] (setting [4]) was 4 (Herbicidal ratio of 70% or more and less than 90%). Moreover, in the data set with Monochoria vaginalis (setting [4]), the “C (Monochoria vaginalis) herbicidal ratio grade” value is 3 (Herbicidal ratio of 40% or more and less than 70%). Also, the “B (Scirpus juncoides) herbicidal ratio grade” value with Scirpus juncoides (setting [4]) is 4 (Herbicidal ratio of 70% or more and less than 90%). For the same compound, the “E (Cyperus difformis) herbicidal ratio grade” value in the data set on Cyperus difformis (setting [4]) was 5 (Herbicidal ratio of 90% or more (almost completely withered)). Moreover, the “H (Echinochloa crus-galli var. crus-galli) herbicidal ratio grade” value in data set [2] (setting [4]) was 5 (Herbicidal ratio of 90% or more (almost completely withered)). The “D (Leptochloa chinensis) herbicidal ratio grade” value in the data set with Leptochloa chinensis (setting [4]) is reported as 5 (Herbicidal ratio of 90% or more (almost completely withered)). Also, the “b (directly sowed Oryza sativa) effect on crop grade” value in data set [3] (setting [4]) is 3 (Herbicidal ratio of 40% or more and less than 70%). In the data set on Amaranthus retroflexus, the “N (Amaranthus retroflexus) herbicidal effect” value is given as 5 (Herbicidal ratio of 90% or more (almost completely withered)). The “P (Stellaria media) herbicidal effect” value in the data set on Stellaria media is recorded as 5 (Herbicidal ratio of 90% or more (almost completely withered)).
In the case of `Cc1nnc(NC(=O)c2ccc(C(F)(F)F)n3c(Br)nnc23)o1` [1-014], the “A (Echinochloa oryzicola Vasing.) herbicidal ratio grade” value in data set [1] (setting [5]) is 2 (Herbicidal ratio of 20% or more and less than 40%). Further, in the data set on Monochoria vaginalis (setting [5]), the “C (Monochoria vaginalis) herbicidal ratio grade” value is 0 (Herbicidal ratio of 5% or less (almost no effect)). Besides, the “B (Scirpus juncoides) herbicidal ratio grade” value in the data set with Scirpus juncoides (setting [5]) was 3 (Herbicidal ratio of 40% or more and less than 70%). Moreover, in the data set on Cyperus difformis (setting [4]), the “E (Cyperus difformis) herbicidal ratio grade” value is 4 (Herbicidal ratio of 70% or more and less than 90%). The “H (Echinochloa crus-galli var. crus-galli) herbicidal ratio grade” value in data set [2] (setting [4]) is reported as 5 (Herbicidal ratio of 90% or more (almost completely withered)). Also, the “D (Leptochloa chinensis) herbicidal ratio grade” value with Leptochloa chinensis (setting [4]) was 2 (Herbicidal ratio of 20% or more and less than 40%). Further, the “b (directly sowed Oryza sativa) effect on crop grade” value in [3] (setting [4]) is 1 (Herbicidal ratio of 5% or more and less than 20%). The “N (Amaranthus retroflexus) herbicidal effect” value with Amaranthus retroflexus is 5 (Herbicidal ratio of 90% or more (almost completely withered)). The “P (Stellaria media) herbicidal effect” value in the data set with Stellaria media is reported as 5 (Herbicidal ratio of 90% or more (almost completely withered)).
For the compound `Cc1cc(-c2nnc3c(C(=O)Nc4nnc(C)o4)ccc(C(F)(F)F)n23)no1` [1-022], in data set [1] (setting [4]), the “A (Echinochloa oryzicola Vasing.) herbicidal ratio grade” value was 2 (Herbicidal ratio of 20% or more and less than 40%). In addition, the “C (Monochoria vaginalis) herbicidal ratio grade” value in the data set on Monochoria vaginalis (setting [4]) was 0 (Herbicidal ratio of 5% or less (almost no effect)). Further, the “B (Scirpus juncoides) herbicidal ratio grade” value with Scirpus juncoides (setting [4]) is 2 (Herbicidal ratio of 20% or more and less than 40%). Moreover, the “E (Cyperus difformis) herbicidal ratio grade” value in the data set with Cyperus difformis (setting [4]) is 4 (Herbicidal ratio of 70% or more and less than 90%). Besides, in data set [2] (setting [4]), the “H (Echinochloa crus-galli var. crus-galli) herbicidal ratio grade” value was 5 (Herbicidal ratio of 90% or more (almost completely withered)). For the same compound, the “D (Leptochloa chinensis) herbicidal ratio grade” value with Leptochloa chinensis (setting [4]) is reported as 5 (Herbicidal ratio of 90% or more (almost completely withered)). For the same compound, the “b (directly sowed Oryza sativa) effect on crop grade” value in data set [3] (setting [4]) is 2 (Herbicidal ratio of 20% or more and less than 40%). In addition, in the data set with Amaranthus retroflexus, the “N (Amaranthus retroflexus) herbicidal effect” value was 5 (Herbicidal ratio of 90% or more (almost completely withered)). Also, the “P (Stellaria media) herbicidal effect” value with Stellaria media is 4 (Herbicidal ratio of 70% or more and less than 90%).
For `CCCc1nnc2c(C(=O)Nc3nnc(C)o3)ccc(C(F)(F)F)n12` [1-024], the “A (Echinochloa oryzicola Vasing.) herbicidal ratio grade” value in data set [1] (setting [4]) is 4 (Herbicidal ratio of 70% or more and less than 90%). Further, the “C (Monochoria vaginalis) herbicidal ratio grade” value in the data set on Monochoria vaginalis (setting [4]) is 0 (Herbicidal ratio of 5% or less (almost no effect)). Further, the “B (Scirpus juncoides) herbicidal ratio grade” value in the data set on Scirpus juncoides (setting [4]) is 1 (Herbicidal ratio of 5% or more and less than 20%). The “E (Cyperus difformis) herbicidal ratio grade” value in the data set with Cyperus difformis (setting [4]) is 4 (Herbicidal ratio of 70% or more and less than 90%). In addition, in [2] (setting [4]), the “H (Echinochloa crus-galli var. crus-galli) herbicidal ratio grade” value is on record as 5 (Herbicidal ratio of 90% or more (almost completely withered)). Besides, the “D (Leptochloa chinensis) herbicidal ratio grade” value with Leptochloa chinensis (setting [4]) is 4 (Herbicidal ratio of 70% or more and less than 90%). In addition, the “b (directly sowed Oryza sativa) effect on crop grade” value in [3] (setting [4]) is 2 (Herbicidal ratio of 20% or more and less than 40%). Further, in the data set with Amaranthus retroflexus, the “N (Amaranthus retroflexus) herbicidal effect” value is 5 (Herbicidal ratio of 90% or more (almost completely withered)). Also, the “P (Stellaria media) herbicidal effect” value in the data set with Stellaria media was 4 (Herbicidal ratio of 70% or more and less than 90%).
Take `CC[S+]([O-])c1nnc2c(C(=O)Nc3nnc(C)o3)ccc(C(F)(F)F)n12` (stereo not drawn) [1-034]: the “A (Echinochloa oryzicola Vasing.) herbicidal ratio grade” value in data set [1] (setting [4]) was 4 (Herbicidal ratio of 70% or more and less than 90%). Further, in the data set on Monochoria vaginalis (setting [4]), the “C (Monochoria vaginalis) herbicidal ratio grade” value was 4 (Herbicidal ratio of 70% or more and less than 90%). In addition, the “B (Scirpus juncoides) herbicidal ratio grade” value in the data set with Scirpus juncoides (setting [4]) is 3 (Herbicidal ratio of 40% or more and less than 70%). The “E (Cyperus difformis) herbicidal ratio grade” value with Cyperus difformis (setting [4]) is recorded as 5 (Herbicidal ratio of 90% or more (almost completely withered)). In addition, the “H (Echinochloa crus-galli var. crus-galli) herbicidal ratio grade” value in data set [2] (setting [4]) is 5 (Herbicidal ratio of 90% or more (almost completely withered)). For the same compound, the “D (Leptochloa chinensis) herbicidal ratio grade” value in the data set with Leptochloa chinensis (setting [4]) is reported as 5 (Herbicidal ratio of 90% or more (almost completely withered)). In data set [3] (setting [4]), the “b (directly sowed Oryza sativa) effect on crop grade” value is 5 (Herbicidal ratio of 90% or more (almost completely withered)). The “N (Amaranthus retroflexus) herbicidal effect” value with Amaranthus retroflexus is on record as 5 (Herbicidal ratio of 90% or more (almost completely withered)). In addition, the “P (Stellaria media) herbicidal effect” value with Stellaria media is given as 5 (Herbicidal ratio of 90% or more (almost completely withered)).
Regarding `COCc1nnc2c(C(=O)Nc3nnc(C)o3)ccc(C(F)(F)F)n12` [1-015], the “A (Echinochloa oryzicola Vasing.) herbicidal ratio grade” value in [1] (setting [4]) is 4 (Herbicidal ratio of 70% or more and less than 90%). Also, the “C (Monochoria vaginalis) herbicidal ratio grade” value with Monochoria vaginalis (setting [4]) was 1 (Herbicidal ratio of 5% or more and less than 20%). For the same compound, the “B (Scirpus juncoides) herbicidal ratio grade” value in the data set on Scirpus juncoides (setting [4]) was 2 (Herbicidal ratio of 20% or more and less than 40%). Moreover, in the data set on Cyperus difformis (setting [4]), the “E (Cyperus difformis) herbicidal ratio grade” value was 4 (Herbicidal ratio of 70% or more and less than 90%). Moreover, the “H (Echinochloa crus-galli var. crus-galli) herbicidal ratio grade” value in [2] (setting [4]) was 5 (Herbicidal ratio of 90% or more (almost completely withered)). The “D (Leptochloa chinensis) herbicidal ratio grade” value in the data set on Leptochloa chinensis (setting [4]) was 5 (Herbicidal ratio of 90% or more (almost completely withered)). In addition, the “b (directly sowed Oryza sativa) effect on crop grade” value in data set [3] (setting [4]) is 1 (Herbicidal ratio of 5% or more and less than 20%). In addition, the “N (Amaranthus retroflexus) herbicidal effect” value in the data set with Amaranthus retroflexus is reported as 5 (Herbicidal ratio of 90% or more (almost completely withered)). Also, the “P (Stellaria media) herbicidal effect” value with Stellaria media is listed as 5 (Herbicidal ratio of 90% or more (almost completely withered)).
For the compound `Cc1nnc(NC(=O)c2ccc(C(F)(F)F)n3c(C4CC4)nnc23)o1` [1-010], in data set [1] (setting [4]), the “A (Echinochloa oryzicola Vasing.) herbicidal ratio grade” value is 4 (Herbicidal ratio of 70% or more and less than 90%). For the same compound, the “C (Monochoria vaginalis) herbicidal ratio grade” value in the data set with Monochoria vaginalis (setting [4]) was 4 (Herbicidal ratio of 70% or more and less than 90%). Moreover, the “B (Scirpus juncoides) herbicidal ratio grade” value with Scirpus juncoides (setting [4]) is 1 (Herbicidal ratio of 5% or more and less than 20%). Further, the “E (Cyperus difformis) herbicidal ratio grade” value in the data set on Cyperus difformis (setting [6]) was 4 (Herbicidal ratio of 70% or more and less than 90%). For the same compound, the “H (Echinochloa crus-galli var. crus-galli) herbicidal ratio grade” value in data set [2] (setting [6]) is on record as 5 (Herbicidal ratio of 90% or more (almost completely withered)). The “D (Leptochloa chinensis) herbicidal ratio grade” value in the data set on Leptochloa chinensis (setting [6]) is 5 (Herbicidal ratio of 90% or more (almost completely withered)). In addition, in data set [3] (setting [6]), the “b (directly sowed Oryza sativa) effect on crop grade” value is 0 (Herbicidal ratio of 5% or less (almost no effect)). Moreover, the “N (Amaranthus retroflexus) herbicidal effect” value in the data set on Amaranthus retroflexus is 5 (Herbicidal ratio of 90% or more (almost completely withered)). For the same compound, the “P (Stellaria media) herbicidal effect” value in the data set with Stellaria media is 5 (Herbicidal ratio of 90% or more (almost completely withered)).
As for `CSc1nnc2c(C(=O)Nc3nnc(C)o3)ccc(C(F)(F)F)n12` [1-018, N-(5-Methyl-1,3,4-oxadiazol-2-yl)-3-(methylthio)-5-(trifluoromethyl)-[1,2,4]triazol o[4,3-a]pyridine-8-carboxamide], in data set [1] (setting [4]), the “A (Echinochloa oryzicola Vasing.) herbicidal ratio grade” value is reported as 0 (Herbicidal ratio of 5% or less (almost no effect)). In the data set on Monochoria vaginalis (setting [4]), the “C (Monochoria vaginalis) herbicidal ratio grade” value is 0 (Herbicidal ratio of 5% or less (almost no effect)). Besides, the “B (Scirpus juncoides) herbicidal ratio grade” value in the data set on Scirpus juncoides (setting [4]) is 2 (Herbicidal ratio of 20% or more and less than 40%). In the data set with Cyperus difformis (setting [4]), the “E (Cyperus difformis) herbicidal ratio grade” value is 4 (Herbicidal ratio of 70% or more and less than 90%). Also, in data set [2] (setting [4]), the “H (Echinochloa crus-galli var. crus-galli) herbicidal ratio grade” value is 4 (Herbicidal ratio of 70% or more and less than 90%). The “D (Leptochloa chinensis) herbicidal ratio grade” value in the data set with Leptochloa chinensis (setting [4]) is 4 (Herbicidal ratio of 70% or more and less than 90%). Further, in [3] (setting [4]), the “b (directly sowed Oryza sativa) effect on crop grade” value was 2 (Herbicidal ratio of 20% or more and less than 40%). Further, in the data set with Amaranthus retroflexus, the “N (Amaranthus retroflexus) herbicidal effect” value is 4 (Herbicidal ratio of 70% or more and less than 90%). Further, the “P (Stellaria media) herbicidal effect” value in the data set on Stellaria media is 4 (Herbicidal ratio of 70% or more and less than 90%).
